Measurements published in patent US20250263415A1, “TERTIARY AMIDE DERIVATIVES SUBSTITUTED WITH 4-MEMBERED RING STRUCTURE” (Sumitomo Pharma Co., Ltd., priority 2024, published 2025).

Tests used:
[1] = Solubility test; assay type: physicochemical; conditions: pH 2.0 and pH 3.0 buffers
Procedure: The solubility was measured for Examples 7, 10, 20, 23, 24, and 30 to 34, Comparative Example 1, and Comparative Example 2. The test compound was added to 10 mmol/L glycine buffer (pH 2.0) and 10 mmol/L citrate buffer (pH 3.0), and the mixture was stored in a thermostatic chamber at 5° C. After standing overnight, the mixture was filtered through a membrane filter, and the concentration of the filtrate was measured by HPLC.
The HPLC measurement conditions are as follows.
HPLC conditions • Column: Acquity UPLC BEH C18, 1.7 μm, 50×2.1 mm • Column temperature: 40° C. • Mobile phase: A: 0.1% trifluoroacetic acid-containing water • B: acetonitrile • A/B (min): 95/5 (0)→0/100 (3.5)→0/100 (4)→95/5 (4.01)→95/5 (5) • Flow rate: 0.8 mL/min • Detection: UV visible detector, measurement wavelength 254 nm • Injection volume: 5 μL or • Column: Acquity UPLC BEH C18, 1.7 μm, 50×2.1 mm • Column temperature: 40° C. • Mobile phase: A: 0.1% trifluoroacetic acid-containing water • B: acetonitrile • A/B (min): • 80/20 (0)→40/60 (3.0)→0/100 (3.5)→0/100 (4)→80/20 (4.01)→80/20 (5) • Flow rate: 0.8 mL/min • Detection: UV visible detector, measurement wavelength 254 nm • Injection volume: 2 μL or • Column: Acquity UPLC BEH C18, 1.7 μm, 50×2.1 mm • Column temperature: 40° C. • Mobile phase: A: 0.1% trifluoroacetic acid-containing water • B: acetonitrile • A/B (min): • 80/20 (0)→40/60 (3.0)→0/100 (3.5)→0/100 (4)→100/0 (4.01)→100/0 (5) • Flow rate: 0.8 mL/min • Detection: UV visible detector, measurement wavelength 254 nm • Injection volume: 3 μL

[2] = Pharmacokinetic study in mice; assay type: in vivo
Procedure: The test compound was administered to 7-week-old female BALE/c (BALB/cAnN CrlCrlj) mice intravenously (dosage: 1 mg/kg) in a 50% PEG solution (0.01 mol/L HCl) or orally (dosage: 10 mg/kg) in a 0.5% methylcellulose aqueous solution, and blood was collected at the following times: • Intravenous administration: 5 min, 15 min, 30 min, 1 hr, 2 hr, 4 hr, 6 hr, and 24 hr after administration • Oral administration: 15 min, 30 min, 1 hr, 2 hr, 4 hr, 6 hr, and 24 hr after administration
The collected blood was centrifuged at 3000 rpm×10 min using a refrigerated centrifuge set at 4° C., and the obtained plasma was measured by LC-MS. A calibration curve was prepared from the value (peak ratio) obtained by dividing the peak area of the test substance by the peak area of the internal standard substance in MS and the concentration of the plasma calibration curve sample. The concentration in the sample was calculated from the peak ratio and the calibration curve of each sample.

[3] = system: G-401 xenograft; assay: Drug efficacy evaluation by oral administration using G-401 xenograft model mice; assay type: in vivo
Procedure: (§1) G-401 cells (ATCC) were intradermally transplanted into 4-7-week-old BALB/cAnNCrj-nu/nu mice (CAnN.Cg-Foxnl/CrlCrlj, Jackson Laboratory Japan) at 5×10^5 cells/mouse. After confirming the engraftment of G-401 cells 10-40 days after transplantation, the test compound suspended in a solvent such as 0.5% methylcellulose solution was orally administered twice a day at a dose of 1-100 mg/kg. The tumor volume was measured over time from the start of administration, and the effect of tumor volume reduction by administration of the test compound was evaluated. The tumor volume can be calculated from the following equation using the minor axis and major axis of the tumor measured with an electronic caliper (Mitutoyo).
A control administration group administered with only a solvent such as 0.5% methylcellulose solution and a test compound administration group were compared, and the antitumor effect was evaluated by calculating T/C from the following equation.

[4] = system: G-401 xenograft; assay: Drug efficacy evaluation by intravenous administration using G-401 xenograft mice model; assay type: in vivo; conditions: G-401 xenograft model
Procedure: as §1, with “as 10 mmol/L glycine buffer” for “as 0.5% methylcellulose”, “solution (pH 2.0)” for “solution”, “was” for “was orally”, “administered via the tail vein at least once” for “administered twice”, “a week” for “a day”, “of 0.015-20” for “of 1-100”
A control administration group administered with only a solvent such as 10 mmol/L glycine buffer solution (pH 2.0) and a test compound administration group were compared, and the antitumor effect was evaluated by calculating T/C from the following equation.

[5] = target: hDAT (Homo sapiens (Human), UniProt Q01959); assay: Dopamine receptor inhibitory activity evaluation (binding assay, CHO-S/hDAT membranes); conditions: off-target
hDAT, sequence (Q01959 whole entry): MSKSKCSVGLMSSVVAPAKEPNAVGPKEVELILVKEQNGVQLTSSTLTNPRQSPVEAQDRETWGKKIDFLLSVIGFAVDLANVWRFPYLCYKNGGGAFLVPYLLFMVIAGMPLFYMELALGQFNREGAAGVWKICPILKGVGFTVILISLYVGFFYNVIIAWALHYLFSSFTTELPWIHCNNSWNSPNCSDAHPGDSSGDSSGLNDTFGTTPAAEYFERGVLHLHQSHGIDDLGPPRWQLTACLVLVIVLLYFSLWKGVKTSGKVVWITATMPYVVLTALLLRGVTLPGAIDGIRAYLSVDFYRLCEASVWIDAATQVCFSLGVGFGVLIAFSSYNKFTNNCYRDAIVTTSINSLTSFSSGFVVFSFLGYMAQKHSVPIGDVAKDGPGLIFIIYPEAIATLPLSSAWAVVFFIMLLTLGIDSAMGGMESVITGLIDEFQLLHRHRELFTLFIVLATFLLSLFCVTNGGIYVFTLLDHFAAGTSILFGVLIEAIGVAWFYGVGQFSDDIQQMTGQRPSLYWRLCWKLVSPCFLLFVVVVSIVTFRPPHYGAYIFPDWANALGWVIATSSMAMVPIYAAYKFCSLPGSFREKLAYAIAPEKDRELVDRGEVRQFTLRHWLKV
Procedure: The binding evaluation assay was outsourced to Eurofins. Specifically, CHO—S/hDAT cells were homogenized in an incubation buffer consisting of 50 mmol/L Tris-HCl, pH 7.4, 100 mmol/L NaCl, 1 μmol/L Leupeptin, and 10 μmol/L PMSF. The membrane pellet obtained by centrifugation was resuspended in the incubation buffer to prepare a membrane preparation. The test compound (1-10 μmol/L DMSO solution), the membrane preparation, and 0.15 nmol/L […] were mixed and incubated at 4° C. for 180 minutes. The cell membrane-[^125I]RTI-55 complex was bound to a GF/B filter mat by vacuum filtration and washed with 50 mmol/L Tris-HCl, pH 7.4. The effect on the receptor was assessed by measuring radioactivity using a scintillation counter.

[6] = target: hSERT (Homo sapiens (Human), UniProt P31645); assay: Serotonin receptor inhibitory activity evaluation (binding assay, HEK293/hSERT membranes); conditions: off-target
hSERT, sequence (P31645 whole entry): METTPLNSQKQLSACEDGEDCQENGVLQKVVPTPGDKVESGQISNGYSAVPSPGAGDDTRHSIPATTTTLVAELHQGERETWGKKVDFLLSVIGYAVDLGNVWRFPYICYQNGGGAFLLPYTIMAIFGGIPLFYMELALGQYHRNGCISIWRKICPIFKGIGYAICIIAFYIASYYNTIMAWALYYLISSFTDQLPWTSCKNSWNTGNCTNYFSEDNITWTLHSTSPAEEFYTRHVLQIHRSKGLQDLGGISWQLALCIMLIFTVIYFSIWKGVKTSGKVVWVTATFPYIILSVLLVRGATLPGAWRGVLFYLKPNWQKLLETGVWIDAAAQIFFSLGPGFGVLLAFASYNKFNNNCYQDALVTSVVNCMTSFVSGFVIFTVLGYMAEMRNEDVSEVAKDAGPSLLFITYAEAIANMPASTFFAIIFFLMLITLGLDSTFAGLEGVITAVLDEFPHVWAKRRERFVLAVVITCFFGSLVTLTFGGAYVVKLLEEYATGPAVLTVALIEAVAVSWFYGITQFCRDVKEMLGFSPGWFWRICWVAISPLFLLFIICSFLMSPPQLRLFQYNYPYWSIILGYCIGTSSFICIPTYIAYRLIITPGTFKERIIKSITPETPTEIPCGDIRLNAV
Procedure: The binding evaluation assay was outsourced to Eurofins. Specifically, HEK293/hSERT cells were homogenized in a buffer consisting of 100 mmol/L NaCl, 1 μmol/L Leupeptin, 10 μmol/L PMSF, and 50 mmol/L Tris-HCl (pH7.4). The membrane pellet obtained by centrifugation was resuspended in an incubation buffer consisting of 50 mmol/L Tris-HCl (pH 7.4), 120 mmol/L NaCl, and 5 mmol/L KCl to prepare a membrane preparation. The test compound (1-10 μmol/L DMSO solution), the membrane preparation, and 0.4 nmol/L [^3H]Paroxetin were mixed and incubated at 25° C. for 60 minutes. The cell membrane-[^3H]Paroxetin complex was bound to a GF/B filter mat by vacuum filtration and washed with 50 mmol/L Tris-HCl (pH 7.4). The effect on the receptor was assessed by measuring radioactivity using a scintillation counter.

[7] = target: recombinant p300 (Homo sapiens (Human), UniProt Q09472); assay: HAT activity inhibition experiment (SensoLyte HAT(p300) Assay Kit); assay type: biochemical
recombinant p300, sequence (Q09472 whole entry): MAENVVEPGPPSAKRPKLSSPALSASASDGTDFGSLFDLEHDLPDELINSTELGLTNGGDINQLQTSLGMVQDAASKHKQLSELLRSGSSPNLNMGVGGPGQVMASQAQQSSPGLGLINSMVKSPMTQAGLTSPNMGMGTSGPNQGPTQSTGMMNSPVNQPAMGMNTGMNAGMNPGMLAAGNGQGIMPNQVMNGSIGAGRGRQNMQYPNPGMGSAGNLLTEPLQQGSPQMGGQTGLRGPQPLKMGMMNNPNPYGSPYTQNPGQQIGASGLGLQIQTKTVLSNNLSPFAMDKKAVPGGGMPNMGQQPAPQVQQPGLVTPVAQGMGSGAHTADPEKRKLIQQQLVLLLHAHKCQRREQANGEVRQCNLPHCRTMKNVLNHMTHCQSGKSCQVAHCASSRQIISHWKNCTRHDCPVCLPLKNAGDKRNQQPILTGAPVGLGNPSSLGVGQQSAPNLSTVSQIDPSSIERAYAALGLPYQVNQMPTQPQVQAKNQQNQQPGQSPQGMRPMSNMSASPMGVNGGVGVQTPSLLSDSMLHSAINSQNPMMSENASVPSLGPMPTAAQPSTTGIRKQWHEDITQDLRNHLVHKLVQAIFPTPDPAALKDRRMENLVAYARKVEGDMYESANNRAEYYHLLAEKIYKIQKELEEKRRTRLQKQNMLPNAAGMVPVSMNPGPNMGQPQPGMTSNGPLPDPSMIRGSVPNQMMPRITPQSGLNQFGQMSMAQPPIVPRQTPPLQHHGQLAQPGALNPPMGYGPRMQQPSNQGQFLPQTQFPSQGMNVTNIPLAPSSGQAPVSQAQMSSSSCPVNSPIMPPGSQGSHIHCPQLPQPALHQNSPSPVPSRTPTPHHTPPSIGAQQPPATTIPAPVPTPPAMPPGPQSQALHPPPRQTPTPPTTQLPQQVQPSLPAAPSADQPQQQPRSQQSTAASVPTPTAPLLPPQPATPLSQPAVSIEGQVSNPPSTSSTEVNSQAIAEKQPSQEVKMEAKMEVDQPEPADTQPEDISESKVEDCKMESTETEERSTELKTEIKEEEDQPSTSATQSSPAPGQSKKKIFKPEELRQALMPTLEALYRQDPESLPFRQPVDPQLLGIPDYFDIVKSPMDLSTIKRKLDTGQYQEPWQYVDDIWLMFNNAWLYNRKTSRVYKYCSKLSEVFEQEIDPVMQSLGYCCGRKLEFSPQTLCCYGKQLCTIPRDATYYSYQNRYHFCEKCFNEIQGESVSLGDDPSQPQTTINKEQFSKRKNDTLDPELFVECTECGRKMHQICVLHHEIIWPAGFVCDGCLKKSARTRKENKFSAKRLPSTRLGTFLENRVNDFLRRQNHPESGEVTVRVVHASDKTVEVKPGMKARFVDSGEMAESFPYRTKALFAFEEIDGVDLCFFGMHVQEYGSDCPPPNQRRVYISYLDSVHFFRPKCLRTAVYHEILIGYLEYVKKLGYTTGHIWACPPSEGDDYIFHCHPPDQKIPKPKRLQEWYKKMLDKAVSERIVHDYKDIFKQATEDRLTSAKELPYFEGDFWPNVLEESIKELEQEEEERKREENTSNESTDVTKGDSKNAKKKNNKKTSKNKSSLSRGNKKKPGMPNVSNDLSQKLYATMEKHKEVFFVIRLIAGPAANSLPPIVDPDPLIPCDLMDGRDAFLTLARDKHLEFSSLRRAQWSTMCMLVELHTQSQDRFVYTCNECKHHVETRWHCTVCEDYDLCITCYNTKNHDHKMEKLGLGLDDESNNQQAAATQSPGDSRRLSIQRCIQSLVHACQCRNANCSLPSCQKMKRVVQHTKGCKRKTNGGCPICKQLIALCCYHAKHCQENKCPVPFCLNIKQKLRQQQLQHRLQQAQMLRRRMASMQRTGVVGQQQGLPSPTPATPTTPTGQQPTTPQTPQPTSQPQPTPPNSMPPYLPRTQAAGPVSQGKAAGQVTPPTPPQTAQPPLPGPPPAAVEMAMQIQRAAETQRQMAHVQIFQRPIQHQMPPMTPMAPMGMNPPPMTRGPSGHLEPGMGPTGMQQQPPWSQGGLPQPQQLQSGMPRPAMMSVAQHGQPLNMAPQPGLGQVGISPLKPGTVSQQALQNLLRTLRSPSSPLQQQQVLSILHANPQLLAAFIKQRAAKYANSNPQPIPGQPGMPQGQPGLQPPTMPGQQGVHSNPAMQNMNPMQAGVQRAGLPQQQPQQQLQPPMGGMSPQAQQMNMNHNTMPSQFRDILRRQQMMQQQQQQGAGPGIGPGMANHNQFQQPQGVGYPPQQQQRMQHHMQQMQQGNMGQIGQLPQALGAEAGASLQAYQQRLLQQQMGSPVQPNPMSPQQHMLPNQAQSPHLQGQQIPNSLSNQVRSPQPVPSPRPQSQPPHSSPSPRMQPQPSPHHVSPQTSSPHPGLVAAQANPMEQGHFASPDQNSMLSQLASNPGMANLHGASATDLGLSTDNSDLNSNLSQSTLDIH
Procedure: The HAT activity inhibitory ability of HAT inhibitors was evaluated using SensoLyte HAT(p300) Assay Kit (ANASPEC, AS-72172). Specifically, 7.5 μL of the compound of Examples […] diluted with assay buffer was added to 7.5 μL of recombinant p300 solution diluted 10 times with assay buffer, and the mixture was incubated at room temperature for 10 minutes. 7.5 μL of acetyl CoA solution diluted 10 times with assay buffer and 15 μL of histone H3 peptide diluted 10 times with assay buffer were added thereto, and the mixture was incubated at 37° C. for 30 minutes. 37.5 μL of Stop Solution was added to stop the reaction. 75 μL of p300 Developer solution diluted 50 times with assay buffer was added, and the mixture was incubated at room temperature for 30 minutes under light-shielded conditions. The fluorescence at 513 nm when irradiated with 389 nm excitation light was measured using a multiplate reader.

[8] = system: G-401 cells; assay: Cell proliferation inhibition experiment using G-401 cells; assay type: cell-based
Procedure: G-401 cells (derived from malignant rhabdoid tumor) were obtained from the American Type Culture Collection (ATCC). G-401 cells were cultured in McCoy's 5A medium containing 10% fetal bovine serum and 1% penicillin/streptomycin under conditions of 37° C. and 5% CO2.
500 cells per well were seeded in a 384-well plate. One day after seeding, Examples 1 to 35 were added so that the final concentration of DMSO was 0.1%, and the cells were cultured for 3 days. After the culture was completed, the cell viability was measured using CellTiter-Glo Luminescent Cell Viability Assay (Promega, G7570).

| SMILES | Solubility (in words) [1] | Pharmacokinetics (in words) [2] | Antitumor effect, oral administration (in words) [3] | Antitumor effect, intravenous administration (in words) [4] | Inhibitory effect on dopamine receptors (in words) [5] | Inhibitory effect on serotonin receptors (in words) [6] | HAT activity inhibition (in words) [7] | Cell proliferation inhibitory effect on G-401 cells (in words) [8] |
| --- | --- | --- | --- | --- | --- | --- | --- | --- |
| CN1CC(N(Cc2ccc(F)cc2)C(=O)CN2C(=O)N[C@]3(C[C@@H](F)c4cc(-c5cnn(C)c5)ccc43)C2=O)(C(F)(F)F)C1 [Example 10, 2-[(1′S,3′R)-3′-fluoro-5′-(1-methyl-1H-pyrazol-4-yl)-2,5-dioxo-2′,3′-dihydrospiro[imidazolidine-4,1′-inden]-1-yl]-N-[(4-fluorophenyl)methyl]-N-[1-methyl-3-(trifluoromethyl)azetidin-3-yl]acetamide] | high solubility | excellent pharmacokinetics | strong antitumor effects | strong antitumor effects | did not show strong inhibitory activity | did not show strong inhibitory activity | – | – |
| CN1CC(N(Cc2ccc(F)cc2)C(=O)CN2C(=O)N[C@]3(C[C@@H](F)c4cc(-c5cnn(C)c5F)ccc43)C2=O)(C(F)(F)F)C1 [Example 15, 2-[(1′S,3′R)-3′-fluoro-5′-(5-fluoro-1-methyl-1H-pyrazol-4-yl)-2,5-dioxo-2′,3′-dihydrospiro[imidazolidine-4,1′-inden]-1-yl]-N-[(4-fluorophenyl)methyl]-N-[1-methyl-3-(trifluoromethyl)azetidin-3-yl]acetamide] | – | – | – | – | – | – | strong inhibition of HAT activity | strong cell proliferation inhibitory effect |
| CN1CC(N(Cc2ccc(F)cc2)C(=O)CN2C(=O)N[C@]3(C[C@@H](F)c4cc(-c5cn(C)nc5F)ccc43)C2=O)(C(F)(F)F)C1 [Example 17, 2-[(1′S,3′R)-3′-fluoro-5′-(3-fluoro-1-methyl-1H-pyrazol-4-yl)-2,5-dioxo-2′,3′-dihydrospiro[imidazolidine-4,1′-inden]-1-yl]-N-[(4-fluorophenyl)methyl]-N-[1-methyl-3-(trifluoromethyl)azetidin-3-yl]acetamide] | – | – | – | – | – | – | strong inhibition of HAT activity | strong cell proliferation inhibitory effect |
| CN1CC(N(Cc2ccc(F)cn2)C(=O)CN2C(=O)N[C@]3(C[C@@H](F)c4cc(-c5cnn(C)c5)ccc43)C2=O)(C(F)(F)F)C1 [Example 20, 2-[(1′S,3′R)-3′-fluoro-5′-(1-methyl-1H-pyrazol-4-yl)-2,5-dioxo-2′,3′-dihydrospiro[imidazolidine-4,1′-inden]-1-yl]-N-[(5-fluoropyridin-2-yl)methyl]-N-[1-methyl-3-(trifluoromethyl)azetidin-3-yl]acetamide] | high solubility | excellent pharmacokinetics | strong antitumor effects | strong antitumor effects | did not show strong inhibitory activity | did not show strong inhibitory activity | – | strong cell proliferation inhibitory effect |
| O=C1N[C@]2(C[C@@H](F)c3cc(-c4cnn(C5CCN(C6COC6)CC5)c4)ccc32)C(=O)N1CC(=O)N(Cc1ccc(F)cn1)C1(C(F)(F)F)COC1 [Example 23, 2-[(1′S,3′R)-3′-fluoro-5′-{1-[1-(oxetan-3-yl)piperidin-4-yl]-1H-pyrazol-4-yl}-2,5-dioxo-2′,3′-dihydrospiro[imidazolidine-4,1′-inden]-1-yl]-N-[(5-fluoropyridin-2-yl)methyl]-N-[3-(trifluoromethyl)oxetan-3-yl]acetamide] | high solubility | excellent pharmacokinetics | strong antitumor effects | strong antitumor effects | did not show strong inhibitory activity | did not show strong inhibitory activity | – | – |
